Test results: patent publication US12491180B2, “Application of compound in treating pneumonia” (SHENZHEN OPTIMUM BIOLOGICAL TECHNOLOGY CO., LTD., priority 2019, dated 2025)
Values after ≈ are worked out from the molar mass of the structure shown.

Experiments:
Assay in all cases: MIC, solid dilution method
[1] = system: Enterobacter aerogenes 8193; format: cell-based; conditions: Klebsiella aerogenes; E. ae 8193, CRE clinical isolate; MHA agar, 37° C., 16-20 hours; read-out: MIC
Description: CRE Enterobacter aerogenes 8193, a total of 1 strain;
(§1) The above-mentioned glycerol-preserved strains were taken out from the −80° C. refrigerator, streaked and inoculated on MHA plates, labeled, and cultured overnight in a 37° C. incubator.
(§2) The inoculum was prepared directly from bacterial suspension, and several recovered colonies were picked and directly prepared into a bacterial suspension with a turbidity of No. 0.5 McFarland units in normal saline, and a 10-fold dilution was made during inoculation.
(§3) 6 bottles of MHA culture medium 500 mL/bottle were prepared, and the pH was adjusted to 7.2-7.4, sterilized at 121° C. for 15 min, and the medium was placed in a 55° C. water bath to keep warm.
(§4) Sterile blank petri dishes were taken, and marked with each FL drug/concentration according to 2-fold dilution, and 10 concentrations of each drug starting from 8 μg/mL were tested.
(§5) […]; 20 mL was aspirated and added to a petri dish consistent with the mark, and then 20 mL of MHA culture medium was added to the rest of the drug-containing culture medium, mixed evenly, that is, the 2-fold diluted drug-containing culture medium; 20 mL was aspirated and added to the petri dish consistent with the mark, and then diluted to the 10th concentration and the […] respectively by repeating the above-mentioned steps, and then poured into the petri dish.
(§6) 4 bacterial control petri dishes without drug were prepared at the same time as a control.
(§7) The positioning needle and the inoculation needle were installed according to the order of placement of the colony on the inoculation plate. After inoculation, a bacterial solution circle was formed on the petri dish. After the bacterial solution was absorbed by the agar, the petri dish was placed in an incubator at 37° C. for overnight incubation (16-20 hours), and then taken out.
(§8) The minimum inhibitory concentrations of the compounds against the CRE and CSE strains were determined by the solid dilution method, and the results are shown in Tables 3 and 4.

E. ae 14186 = format: cell-based, Enterobacter aerogenes; conditions: Klebsiella aerogenes, 14186
Description: as §1, §2, §3, §4, §5, §6, §7, §8

[2] = system: Enterobacter cloacae 11090; format: cell-based; conditions: E. cl 11090, CRE clinical isolate, MHA agar, 37° C., 16-20 hours, read-out: MIC
Description: as §1, §2, §4, §6, §7

[3] = system: Enterobacter cloacae 11699; format: cell-based; conditions: E. cl 11699, CSE clinical isolate, MHA agar, 37° C., 16-20 hours, read-out: MIC
Description: as §1, §2, §4, §6, §7

[4] = system: Enterobacter cloacae 14653; format: cell-based; conditions: E. cl 14653, CRE clinical isolate, MHA agar, 37° C., 16-20 hours, read-out: MIC
Description: as §1, §2, §4, §6, §7

E. coli 11256 = format: cell-based; conditions: Escherichia coli; E. coli 11256; MHA agar, 37° C., 16-20 hours; read-out: MIC
Description: as §1, §2, §3, §4, §5, §6, §7, §8

Escherichia coli 11119 = format: cell-based; conditions: E. coli 11119, CRE clinical isolate, MHA agar, 37° C., 16-20 hours, read-out: MIC
Description: as §1, §2, §3, §4, §5, §6, §7, §8

Escherichia coli 13897 = format: cell-based; conditions: E. coli 13897, CRE clinical isolate, MHA agar, 37° C., 16-20 hours, read-out: MIC
Description: as §1, §2, §3, §4, §5, §6, §7, §8

Escherichia coli 14828 = format: cell-based; conditions: E. coli 14828, CRE clinical isolate, MHA agar, 37° C., 16-20 hours, read-out: MIC
Description: as §1, §2, §3, §4, §5, §6, §7, §8

Klebsiella oxytoca 12391 = format: cell-based; conditions: K. ox 12391, CRE clinical isolate, MHA agar, 37° C., 16-20 hours, read-out: MIC
Description: as §1, §2, §3, §4, §5, §6, §7, §8

Klebsiella oxytoca 14151 = format: cell-based; conditions: K. ox 14151, CRE clinical isolate, MHA agar, 37° C., 16-20 hours, read-out: MIC
Description: as §1, §2, §3, §4, §5, §6, §7, §8

Klebsiella oxytoca 14153 = format: cell-based; conditions: K. ox 14153, CRE clinical isolate, MHA agar, 37° C., 16-20 hours, read-out: MIC
Description: as §1, §2, §3, §4, §5, §6, §7, §8

Klebsiella oxytoca 6777 = format: cell-based; conditions: K. ox 6777, CRE clinical isolate, MHA agar, 37° C., 16-20 hours, read-out: MIC
Description: as §1, §2, §3, §4, §5, §6, §7, §8

[5] = system: Escherichia coli ATCC25922; format: cell-based; conditions: E. coli ATCC25922, standard strain, MHA agar, 37° C., 16-20 hours, read-out: MIC
Description: (§9) (1) Standard strains: Escherichia coli BAA-2452, Escherichia coli ATCC25922, Klebsiella pneumoniae BAA-1705; all purchased from ATCC.
as §1, §2, §3, §4, §5, §6, §7, §8

[6] = system: Escherichia coli BAA-2452; format: cell-based; conditions: BAA2452, E. coli BAA-2452, standard strain, MHA agar, 37° C., 16-20 hours, read-out: MIC
Description: as §9, §1, §2, §3, §4, §5, §6, §7, §8

[7] = system: Klebsiella pneumoniae BAA-1705; format: cell-based; conditions: BAA1705, K.p BAA-1705, standard strain, MHA agar, 37° C., 16-20 hours, read-out: MIC
Description: as §9, §1, §2, §3, §4, §5, §6, §7, §8

[8] = system: Klebsiella pneumoniae 11544; format: cell-based; conditions: K.p 11544, CRE clinical isolate, MHA agar, 37° C., 16-20 hours, read-out: MIC
Description: (§10) (2) Clinical isolated strains: CRE Klebsiella pneumoniae 5846, 11544, 12559, 13249 and CSE Klebsiella pneumoniae 8733, a total of 5 strains;
as §1, §2, §3, §4, §5, §6, §7, §8

[9] = system: Klebsiella pneumoniae 12559; format: cell-based; conditions: K.p 12559, CRE clinical isolate, MHA agar, 37° C., 16-20 hours, read-out: MIC
Description: as §10, §1, §2, §3, §4, §5, §6, §7, §8

[10] = system: Klebsiella pneumoniae 13249; format: cell-based; conditions: K.p 13249, CRE clinical isolate, MHA agar, 37° C., 16-20 hours, read-out: MIC
Description: as §10, §1, §2, §3, §4, §5, §6, §7, §8

[11] = system: Klebsiella pneumoniae 5846; format: cell-based; conditions: K.p 5846, CRE clinical isolate, MHA agar, 37° C., 16-20 hours, read-out: MIC
Description: as §10, §1, §2, §3, §4, §5, §6, §7, §8

[12] = system: Klebsiella pneumoniae 8733; format: cell-based; conditions: K.p 8733, CSE clinical isolate, MHA agar, 37° C., 16-20 hours, read-out: MIC
Description: as §10, §1, §2, §3, §4, §5, §6, §7, §8

[13] = system: Citrobacter freundii 7646; format: cell-based; conditions: C.f 7646, CSE clinical isolate, MHA agar, 37° C., 16-20 hours, read-out: MIC
Description: (§11) CRE Citrobacter freundii 9434, 9484 and CSE Citrobacter freundii 7646, a total of 3 strains;
as §1, §2, §3, §4, §5, §6, §7, §8

[14] = system: Citrobacter freundii 9434; format: cell-based; conditions: 9434
Description: as §11, §1, §2, §3, §4, §5, §6, §7, §8

[15] = system: Citrobacter freundii 9484; format: cell-based; conditions: C.f 9484, CRE clinical isolate, MHA agar, 37° C., 16-20 hours, read-out: MIC
Description: as §11, §1, §2, §3, §4, §5, §6, §7, §8

[16] = system: Acinetobacter baumannii 6383; format: cell-based; conditions: A.B 6383, CRE clinical isolate, MHA agar, 37° C., 16-20 hours, read-out: MIC
Description: (§12) CRE Acinetobacter baumannii 8476, 6383, a total of 2 strains; CRE Serratia marcescens 14541, a total of 1 strain; all collected in the Department of Infectious Diseases, West China Hospital, Chengdu, Sichuan Province, and kept in our laboratory.
as §1, §2, §3, §4, §5, §6, §7, §8

[17] = system: Acinetobacter baumannii 8476; format: cell-based; conditions: A.B 8476, CRE clinical isolate, MHA agar, 37° C., 16-20 hours, read-out: MIC
Description: as §12, §1, §2, §3, §4, §5, §6, §7, §8

[18] = system: Serratia marcescens 14541; format: cell-based; conditions: 14541
Description: as §12, §1, §2, §3, §4, §5, §6, §7, §8

SMILES: C[C@@H](O)[C@H]1C(=O)N2C(C(=O)O)=C(S[C@@H]3CN[C@H](C(=O)N(C)C)C3)[C@H](C)[C@H]12 [Meropenem, reference compound]
- MIC [1]: 16 µg/mL (≈ 41.7 µM)
- MIC (E. ae 14186): 0.125 µg/mL (≈ 0.326 µM)
- MIC [2]: 0.5 µg/mL (≈ 1.3 µM)
- MIC [3]: < 0.015 µg/mL
- MIC [4]: 64 µg/mL (≈ 167 µM)
- MIC (E. coli 11256): < 0.015 µg/mL
- MIC (Escherichia coli 11119): 16 µg/mL (≈ 41.7 µM)
- MIC (Escherichia coli 13897): 4 µg/mL (≈ 10.4 µM)
- MIC (Escherichia coli 14828): 8 µg/mL (≈ 20.9 µM)
- MIC (Klebsiella oxytoca 12391): 2 µg/mL (≈ 5.22 µM)
- MIC (Klebsiella oxytoca 14151): 16 µg/mL (≈ 41.7 µM)
- MIC (Klebsiella oxytoca 14153): 32 µg/mL (≈ 83.4 µM)
- MIC (Klebsiella oxytoca 6777): 16 µg/mL (≈ 41.7 µM)
- MIC [5]: < 0.015 µg/mL
- MIC [6]: 16 µg/mL (≈ 41.7 µM)
- MIC [7]: 16 µg/mL (≈ 41.7 µM)
- MIC [8]: 32 µg/mL (≈ 83.4 µM)
- MIC [9]: 4 µg/mL (≈ 10.4 µM)
- MIC [10]: 64 µg/mL (≈ 167 µM)
- MIC [11]: 8 µg/mL (≈ 20.9 µM)
- MIC [12]: 0.03 µg/mL (≈ 0.0782 µM)
- MIC [13]: < 0.015 µg/mL
- MIC [14]: > 128 µg/mL
- MIC [15]: 0.06 µg/mL (≈ 0.156 µM)
- MIC [16]: 64 µg/mL (≈ 167 µM)
- MIC [17]: 64 µg/mL (≈ 167 µM)
- MIC [18]: 128 µg/mL (≈ 334 µM)
